Where two headings read alike, the source gives them in different places.

What all share (format): biochemical
Experiment [1] concerns the target hCA I (Homo sapiens, UniProt P00915). The experiment in a line: CA inhibition, stopped-flow CO2 hydrase assay, hCA I. The procedure: (§1) An Applied Photophysics stopped-flow instrument has been used for assaying the CA-catalyzed CO2 hydration activity. […] The initial rates of the CA-catalysed CO2 hydration reaction were followed for a period of 10−100 s. The CO2 concentrations ranged from 1.7 to 17 mM for the determination of the kinetic parameters and inhibition constants. […] The uncatalyzed rates were determined in the same manner and subtracted from the total observed ones. Stock solutions of each inhibitor (0.1 mM) were prepared in distilled − deionized water and dilutions up to 0.01 nM were done thereafter with distilled − deionized water. Inhibitor and enzyme solutions were preincubated together for 15 min at room temperature prior to assay to allow for the formation of the E−I complex. The inhibition constants were obtained by nonlinear least-squares methods using the Cheng-Prusoff equation and represent the mean from at least three different determinations. […] Human CA isoforms were recombinant enzymes obtained in-house as reported earlier.

Experiment [2] addresses hCA II (Homo sapiens, UniProt P00918). The experiment in a line: CA inhibition, stopped-flow CO2 hydrase assay, hCA II. As for the experimental part: as §1
The target in experiment [3] is hCA IX (Homo sapiens, UniProt Q16790). The experiment in a line: CA inhibition, stopped-flow CO2 hydrase assay, hCA IX. As for the experimental part: as §1
The target of experiment [4] is hCA XII (Homo sapiens, UniProt O43570). The experiment in a line: CA inhibition, stopped-flow CO2 hydrase assay, hCA XII. As for the experimental part: as §1
Chain of hCA XII (O43570 25-354): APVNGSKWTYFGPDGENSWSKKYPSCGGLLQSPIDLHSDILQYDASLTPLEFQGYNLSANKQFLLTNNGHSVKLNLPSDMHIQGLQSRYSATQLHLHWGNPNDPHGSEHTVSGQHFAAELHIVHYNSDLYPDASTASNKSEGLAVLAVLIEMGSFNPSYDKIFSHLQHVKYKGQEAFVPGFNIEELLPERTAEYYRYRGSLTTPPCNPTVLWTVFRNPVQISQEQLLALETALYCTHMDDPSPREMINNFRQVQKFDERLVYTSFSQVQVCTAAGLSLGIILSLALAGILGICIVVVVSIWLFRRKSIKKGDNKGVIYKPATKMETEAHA
Where [5] appears, read: Table 1, saccharin-based derivatives, recombinant enzyme, 15 min preincubation, pH 7.5.
Where [6] appears, read: Table 2, acesulfame-based derivatives, mean from 3 different assays, errors ± 5–10%.

Chain of hCA I (P00915 whole entry): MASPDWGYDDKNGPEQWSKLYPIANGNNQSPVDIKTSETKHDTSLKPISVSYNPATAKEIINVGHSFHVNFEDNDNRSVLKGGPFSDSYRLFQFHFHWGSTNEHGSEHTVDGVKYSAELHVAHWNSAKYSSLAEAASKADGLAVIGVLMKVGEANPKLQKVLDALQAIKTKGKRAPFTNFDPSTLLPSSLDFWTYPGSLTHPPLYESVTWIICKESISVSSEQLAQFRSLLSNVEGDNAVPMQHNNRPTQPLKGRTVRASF

In the case of `O=C(O)c1ccccc1S(=O)(=O)Nc1ccccc1` [Compound 17], the Ki was greater than 1000 µM in experiment [1] (setting [5]), greater than 1000 µM in experiment [2] (setting [5]), 46.5 µM in experiment [3] (setting [5]) and greater than 1000 µM in experiment [4] (setting [5]).

In the case of `CC1=CC(OCc2cn(-c3ccccc3)nn2)=NS(=O)(=O)O1` [Compound 55], the Ki in experiment [1] (setting [6]), in experiment [2] (setting [6]), in experiment [3] (setting [6]) and in experiment [4] (setting [6]) was greater than 1000 µM in each case.

As for `CC1=CC(OCc2cn(-c3ccc(Cl)cc3)nn2)=NS(=O)(=O)O1` [Compound 57], the inhibitory constant (Ki) in experiment [1] (setting [6]), in experiment [2] (setting [6]), in experiment [3] (setting [6]) and in experiment [4] (setting [6]) was greater than 1000 µM throughout.

With `O=C(CN1C(=O)c2ccccc2S1(=O)=O)c1cccc([N+](=O)[O-])c1` [Compound 4], the “inhibitory activity against hCA I, in words” value in experiment [1] is “ineffective”. In addition, the inhibitory constant (Ki) is greater than 1000 µM in experiment [1] (setting [5]); greater than 1000 µM in experiment [2] (setting [5]); greater than 1000 µM in experiment [3]; greater than 1000 µM in experiment [3] (setting [5]); 0.41 µM in experiment [4]. Besides, the “inhibitory activity against hCA II, in words” value in experiment [2] is on record as “ineffective”.

On to `CC1=CC(OCc2cn(-c3ccc(C)cc3)nn2)=NS(=O)(=O)O1` [Compound 56], for which the Ki in experiment [1] (setting [6]), in experiment [2] (setting [6]), in experiment [3] (setting [6]) and in experiment [4] (setting [6]) was greater than 1000 µM in each case.

Take `CC1=CC(OCc2cn(Cc3ccccc3)nn2)=NS(=O)(=O)O1` [Compound 60]: the Ki in experiment [1] (setting [6]) was greater than 100 µM; in experiment [2] (setting [6]), greater than 100 µM; in experiment [3] (setting [6]), 1.1 µM; in experiment [4] (setting [6]) it was greater than 100 µM.

For `O=C(O)c1ccccc1S(=O)(=O)Nc1ccc(Cl)cc1` [Compound 20], the Ki in experiment [1] (setting [5]), in experiment [2] (setting [5]), in experiment [3] (setting [5]) and in experiment [4] (setting [5]) was greater than 1000 µM each time.

For the compound `COc1ccc(-n2cc(COC3=NS(=O)(=O)OC(C)=C3)nn2)cc1` [Compound 59], the Ki in experiment [1] (setting [6]), in experiment [2] (setting [6]), in experiment [3] (setting [6]) and in experiment [4] (setting [6]) was greater than 1000 µM each time.

With `O=C1c2ccccc2S(=O)(=O)N1c1ccc(Br)cc1` [Compound 33], the Ki in experiment [1] (setting [5]) was greater than 1000 µM; in experiment [2] (setting [5]), greater than 1000 µM; in experiment [3] (setting [5]), 869 µM; in experiment [4] (setting [5]) it was greater than 1000 µM.

In the case of `Cc1ccc(-n2cc(CN3C(=O)c4ccccc4S3(=O)=O)nn2)cc1` [Compound 44], the Ki in experiment [1] (setting [5]) is greater than 1000 µM; in experiment [2] (setting [5]), greater than 1000 µM; in experiment [3] (setting [5]), 670 µM; in experiment [4] (setting [5]), greater than 1000 µM.

For the compound `COC(=O)c1ccccc1S(=O)(=O)Nc1ccc(C(C)C)cc1` [Compound 15], the Ki in experiment [1] (setting [5]) was greater than 1000 µM; in experiment [2] (setting [5]) it was greater than 1000 µM; in experiment [3] (setting [5]) it was 57.6 µM; in experiment [4] (setting [5]) it was greater than 1000 µM.

For `O=C(O)c1ccccc1S(=O)(=O)NCc1cn(-c2ccccc2)nn1` [Compound 47], in experiment [1], the “inhibitory activity against hCA I, in words” value is on record as “ineffective”. The Ki is greater than 1000 µM in experiment [1] (setting [5]), greater than 1000 µM in experiment [2] (setting [5]), 927 µM in experiment [3] (setting [5]) and greater than 1000 µM in experiment [4] (setting [5]). Moreover, in experiment [2], the “inhibitory activity against hCA II, in words” value is “ineffective”. The “inhibitory activity against hCA IX, in words” value in experiment [3] is listed as “ineffective”. Moreover, the “inhibitory activity against hCA XII, in words” value in experiment [4] is “ineffective”.

With `COC(=O)c1ccccc1S(=O)(=O)Nc1ccc(Br)cc1` [Compound 9], the Ki in experiment [1] (setting [5]) is greater than 1000 µM; in experiment [2] (setting [5]), 689 µM; in experiment [3] (setting [5]) it was 6.7 µM; in experiment [4] (setting [5]) it was greater than 1000 µM.

As to `O=C(O)c1ccccc1S(=O)(=O)Nc1ccc(F)cc1` [Compound 18], the Ki is greater than 1000 µM in experiment [1] (setting [5]), greater than 1000 µM in experiment [2] (setting [5]), 45.8 µM in experiment [3] (setting [5]) and greater than 1000 µM in experiment [4] (setting [5]).

Turning to `O=C1c2ccccc2S(=O)(=O)N1c1ccccc1` [Compound 29], the Ki in experiment [1] (setting [5]), in experiment [2] (setting [5]), in experiment [3] (setting [5]) and in experiment [4] (setting [5]) was greater than 1000 µM throughout.

For the compound `O=C(O)c1ccccc1S(=O)(=O)Nc1ccc(Br)cc1` [Compound 21], the Ki in experiment [1] (setting [5]) was greater than 1000 µM; in experiment [2] (setting [5]), greater than 1000 µM; in experiment [3] (setting [5]), 72.8 µM; in experiment [4] (setting [5]), greater than 1000 µM.

As to `COC(=O)c1ccccc1S(=O)(=O)Nc1ccc(C)cc1` [Compound 13], the Ki in experiment [1] (setting [5]) was greater than 1000 µM; in experiment [2] (setting [5]), greater than 1000 µM; in experiment [3] (setting [5]), 68.2 µM; in experiment [4] (setting [5]) it was greater than 1000 µM.

For `O=C(O)c1ccccc1S(=O)(=O)Nc1ccc([N+](=O)[O-])cc1` [Compound 24], the Ki in experiment [1] (setting [5]) is greater than 1000 µM; in experiment [2], 66.9 µM; in experiment [3], 0.24 µM; in experiment [3] (setting [5]), 0.24 µM; in experiment [4] (setting [5]), greater than 1000 µM.

On to `COC(=O)c1ccccc1S(=O)(=O)Nc1ccc(Cl)cc1` [Compound 8], for which the Ki in experiment [1] (setting [5]) was greater than 1000 µM; in experiment [2] (setting [5]) it was greater than 1000 µM; in experiment [3] (setting [5]), 955 µM; in experiment [4] (setting [5]), greater than 1000 µM.

For the compound `O=C1c2ccccc2S(=O)(=O)N1c1ccc(Cl)cc1` [Compound 32], the Ki in experiment [1] (setting [5]), in experiment [2] (setting [5]), in experiment [3] (setting [5]) and in experiment [4] (setting [5]) was greater than 1000 µM in each case.

As to `O=C1c2ccccc2S(=O)(=O)N1c1ccccc1Cl` [Compound 31], the Ki in experiment [1] (setting [5]) is greater than 1000 µM; in experiment [2] it was 478 µM; in experiment [3] (setting [5]), 640 µM; in experiment [4] (setting [5]) it was greater than 1000 µM.

As to `COc1ccc(NS(=O)(=O)c2ccccc2C(=O)O)cc1` [Compound 28], the inhibition constant (Ki) in experiment [1] (setting [5]), in experiment [2] (setting [5]), in experiment [3] (setting [5]) and in experiment [4] (setting [5]) was greater than 1000 µM throughout.

On to `O=C1c2ccccc2S(=O)(=O)N1Cc1cn(-c2ccc(Cl)cc2)nn1` [Compound 42], for which the inhibitory constant (Ki) is greater than 1000 µM in experiment [1] (setting [5]), 80.8 µM in experiment [2] (setting [5]), 759 µM in experiment [3] (setting [5]) and greater than 1000 µM in experiment [4] (setting [5]).

For the origin of these results see article PMC7580763, “Novel insights on saccharin- and acesulfame-based carbonic anhydrase inhibitors: design, synthesis, modelling investigations and biological activity evaluation” (Journal of Enzyme Inhibition and Medicinal Chemistry, 2020).
